Test results from US20070043049A1, “Substituted heterocyclic diarylamine analogues” (Neurogen Corporation, priority 2003, published 2007).

Target: T1, human capsaicin receptor (Homo sapiens, UniProt Q8NER1)
T1 construct: pBK-CMV expression construct encoding the full length human capsaicin receptor; expressed in transfected cells
Experiment: Calcium mobilization assay, determination of antagonist activity (Example 6)
Format: cell-based
Conditions: 50% decrease in fluorescence response of cells expressing human capsaicin receptor exposed to capsaicin
Experimental: A cDNA encoding full length human capsaicin receptor (SEQ ID NO:1, 2 or 3 of U.S. Pat. No. 6,482,611) was subcloned in the plasmid pBK-CMV (Stratagene, La Jolla, Calif.) for recombinant expression in mammalian cells.
Human embryonic kidney (HEK293) cells were transfected with the pBK-CMV expression construct encoding the full length human capsaicin receptor using standard methods. The transfected cells were selected for two weeks in media containing G418 (400 μg/ml) to obtain a pool of stably transfected cells. Independent clones were isolated from this pool by limiting dilution to obtain clonal stable cell lines for use in subsequent experiments.
Cells transfected with expression plasmids (as described in Example 4) and thereby expressing human capsaicin receptor are seeded and grown to 70-90% confluency in FALCON black-walled, clear-bottomed 96-well plates (#3904, BECTON-DICKINSON, Franklin Lakes, N.J.). The culture medium is emptied from the 96 well plates and FLUO-3 AM calcium sensitive dye (Molecular Probes, Eugene, Oreg.) is added to each well (dye solution: 1 mg FLUO-3 AM, 440 μL DMSO and 440 μl 20% pluronic acid in DMSO, diluted 1:250 in Krebs-Ringer HEPES (KRH) buffer (25 mM HEPES, 5 mM KCl, 0.96 mM NaH2PO4, 1 mM MgSO4, 2 mM CaCl2, 5 mM glucose, 1 mM probenecid, pH 7.4), 50 μl diluted solution per well). Plates are covered with aluminum foil and incubated at 37° C. for 1-2 hours in an environment containing 5% CO2. After the incubation, the dye is emptied from the plates, and the cells are washed once with KRH buffer, and resuspended in KRH buffer.
To measure the ability of a test compound to agonize or antagonize a calcium mobilization response in cells expressing capsaicin receptors to capsaicin or other vanilloid agonist, the EC50 of the agonist capsaicin is first determined. An additional 20 μl of KRH buffer and 1 μl DMSO is added to each well of cells, prepared as described above. 100 μl capsaicin in KRH buffer is automatically transferred by the FLIPR instrument to each well. Capsaicin-induced calcium mobilization is monitored using either FLUOROSKAN ASCENT (Labsystems; Franklin, Mass.) or FLIPR (fluorometric imaging plate reader system; Molecular Devices, Sunnyvale, Calif.) instruments. Data obtained between 30 and 60 seconds after agonist application are used to generate an 8-point concentration response curve, with final capsaicin concentrations of 1 nM to 3 μM. KALEIDAGRAPH software (Synergy Software, Reading, Pa.) is used to fit the data to the equation: y=a*(1/(1+(b/x)^c)) to determine the 50% excitatory concentration (EC50) for the response. In this equation, y is the maximum fluorescence signal, x is the concentration of the agonist or antagonist (in this case, capsaicin), a is the Emax, b corresponds to the EC50 value and c is the Hill coefficient. Determination of Agonist Activity
Test compounds are dissolved in DMSO, diluted in 20 μl KRH buffer so that the final concentration of test compounds in the assay well is between 1 μM and 5 μM, and added to cells prepared as described above. The 96 well plates containing prepared cells and test compounds are incubated in the dark, at room temperature for 0.5 to 6 hours. It is important that the incubation not continue beyond 6 hours. Just prior to determining the fluorescence response, 100 μl capsaicin in KRH buffer at twice the EC50 concentration determined as described above is automatically added by the FLIPR instrument to each well of the 96 well plate for a final sample volume of 200 μl and a final capsaicin concentration equal to the EC50. The final concentration of test compounds in the assay wells is between 1 μM and […]. […] The concentration of antagonist required to provide a 50% decrease, relative to the response observed in the presence of capsaicin and without antagonist, is the IC50 for the antagonist, and is preferably below 1 micromolar, 100 nanomolar, 10 nanomolar or 1 nanomolar.

T1 sequence (Q8NER1 whole entry): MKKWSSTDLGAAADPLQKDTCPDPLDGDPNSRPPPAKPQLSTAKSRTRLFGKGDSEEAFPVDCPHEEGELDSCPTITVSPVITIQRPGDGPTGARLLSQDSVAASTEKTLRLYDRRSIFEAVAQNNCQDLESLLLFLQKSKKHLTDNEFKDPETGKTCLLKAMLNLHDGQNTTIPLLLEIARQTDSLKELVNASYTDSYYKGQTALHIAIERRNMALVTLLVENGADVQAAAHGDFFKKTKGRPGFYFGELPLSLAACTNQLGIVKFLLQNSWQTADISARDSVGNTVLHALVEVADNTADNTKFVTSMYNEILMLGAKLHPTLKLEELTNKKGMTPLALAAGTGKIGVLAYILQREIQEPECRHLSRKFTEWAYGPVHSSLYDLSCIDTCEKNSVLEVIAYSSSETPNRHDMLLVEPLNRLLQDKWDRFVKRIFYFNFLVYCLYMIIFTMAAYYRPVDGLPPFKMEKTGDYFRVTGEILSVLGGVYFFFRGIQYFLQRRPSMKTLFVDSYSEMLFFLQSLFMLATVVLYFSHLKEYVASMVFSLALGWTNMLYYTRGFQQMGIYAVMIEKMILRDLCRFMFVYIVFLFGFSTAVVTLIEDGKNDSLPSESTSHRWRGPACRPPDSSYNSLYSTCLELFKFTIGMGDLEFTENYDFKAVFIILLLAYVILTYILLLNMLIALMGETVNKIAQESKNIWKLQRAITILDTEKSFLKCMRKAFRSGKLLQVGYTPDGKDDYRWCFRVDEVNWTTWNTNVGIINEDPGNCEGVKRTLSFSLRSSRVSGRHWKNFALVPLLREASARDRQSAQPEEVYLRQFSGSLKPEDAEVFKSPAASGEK

| Compound | IC50 [nM] |
| --- | --- |
| CCCNc1nc(Nc2ccc(C(F)(F)F)cc2)nc(N2CCN(c3ncccc3Cl)C[C@H]2C)n1 [Compound 22, 6-[4-(3-Chloro-pyridin-2-yl)-2-methyl-piperazin-1-yl]-N-propyl-N′-(4-trifluoromethyl-phenyl)-[1,3,5]triazine-2,4-diamine (R)] | ≤ 1000 |
| FC(F)(F)c1ccc(Nc2nc(N3CCOCC3)nc(N3CCN(c4ncccc4C(F)(F)F)CC3)n2)cc1 [Compound 23, {4-Morpholin-4-yl-6-[4-(3-trifluoromethyl-pyridin-2-yl)-piperazin-1-yl]-[1,3,5]triazin-2-yl}-(4-trifluoromethyl-phenyl)-amine] | ≤ 1000 |
| C[C@@H]1CN(c2ncccc2Cl)CCN1c1nc(Cl)nc(Nc2ccc(C(F)(C(F)(F)F)C(F)(F)F)cc2)n1 [Compound 24, {4-Chloro-6-[4-(3-chloro-pyridin-2-yl)-2-methyl-piperazin-1-yl]-[1,3,5]triazin-2-yl}-[4-(1,2,2,2-tetrafluoro-1-trifluoromethyl-ethyl)-phenyl]-amine (R)] | ≤ 1000 |
| CCCNc1nc(Nc2ccc(C(F)(C(F)(F)F)C(F)(F)F)cc2)nc(N2CCN(c3ncccc3Cl)C[C@H]2C)n1 [Compound 25, 6-[4-(3-Chloro-pyridin-2-yl)-2-methyl-piperazin-1-yl]-N-propyl-N′-[4-(1,2,2,2-tetrafluoro-1-trifluoromethyl-ethyl)-phenyl]-[1,3,5]triazine-2,4-diamine (R)] | ≤ 1000 |
| CC(C)CNc1nc(Nc2ccc(C(F)(C(F)(F)F)C(F)(F)F)cc2)nc(N2CCN(c3ncccc3Cl)C[C@H]2C)n1 [Compound 26, 6-[4-(3-Chloro-pyridin-2-yl)-2-methyl-piperazin-1-yl]-N-isobutyl-N′-[4-(1,2,2,2-tetrafluoro-1-trifluoromethyl-ethyl)-phenyl]-[1,3,5]triazine-2,4-diamine (R)] | ≤ 1000 |
| CCC(C)Nc1nc(Nc2ccc(C(F)(C(F)(F)F)C(F)(F)F)cc2)nc(N2CCN(c3ncccc3Cl)C[C@H]2C)n1 (stereo partly drawn) [Compound 27, N-sec-Butyl-6-[4-(3-chloro-pyridin-2-yl)-2-methyl-piperazin-1-yl]-N′-[4-(1,2,2,2-tetrafluoro-1-trifluoromethyl-ethyl)-phenyl]-[1,3,5]triazine-2,4-diamine (R)] | ≤ 1000 |
| CCCN(C)c1nc(Nc2ccc(C(F)(F)F)cc2)nc(N2CCN(c3ncccc3Cl)C[C@H]2C)n1 [Compound 30, 6-[4-(3-Chloro-pyridin-2-yl)-2-methyl-piperazin-1-yl]-N-methyl-N-propyl-N′-(4-trifluoromethyl-phenyl)-[1,3,5]triazine-2,4-diamine (R)] | ≤ 1000 |
| CCCCN(C)c1nc(Nc2ccc(C(F)(F)F)cc2)nc(N2CCN(c3ncccc3Cl)C[C@H]2C)n1 [Compound 31, N-Butyl-6-[4-(3-chloro-pyridin-2-yl)-2-methyl-piperazin-1-yl]-N-methyl-N′-(4-trifluoromethyl-phenyl)-[1,3,5]triazine-2,4-diamine (R)] | ≤ 1000 |
| C=CCN(CC=C)c1nc(Nc2ccc(C(F)(F)F)cc2)nc(N2CCN(c3ncccc3Cl)C[C@H]2C)n1 [Compound 32, N,N-Diallyl-6-[4-(3-chloro-pyridin-2-yl)-2-methyl-piperazin-1-yl]-N′-(4-trifluoromethyl-phenyl)-[1,3,5]triazine-2,4-diamine (R)] | ≤ 1000 |
| CCCN(CCC)c1nc(Nc2ccc(C(F)(F)F)cc2)nc(N2CCN(c3ncccc3Cl)C[C@H]2C)n1 [Compound 33, 6-[4-(3-Chloro-pyridin-2-yl)-2-methyl-piperazin-1-yl]-N,N-dipropyl-N′-(4-trifluoromethyl-phenyl)-[1,3,5]triazine-2,4-diamine (R)] | ≤ 1000 |
| CCCCN(CCCC)c1nc(Nc2ccc(C(F)(F)F)cc2)nc(N2CCN(c3ncccc3Cl)C[C@H]2C)n1 [Compound 34, N,N-Dibutyl-6-[4-(3-chloro-pyridin-2-yl)-2-methyl-piperazin-1-yl]-N′-(4-trifluoromethyl-phenyl)-[1,3,5]triazine-2,4-diamine (R)] | ≤ 1000 |
| CC(C)N(C)c1nc(Nc2ccc(C(F)(F)F)cc2)nc(N2CCN(c3ncccc3Cl)C[C@H]2C)n1 [Compound 35, 6-[4-(3-Chloro-pyridin-2-yl)-2-methyl-piperazin-1-yl]-N-isopropyl-N-methyl-N′-(4-trifluoromethyl-phenyl)-[1,3,5]triazine-2,4-diamine (R)] | ≤ 1000 |
| C[C@@H]1CN(c2ncccc2Cl)CCN1c1nc(NCc2cccc(C(F)(F)F)c2)nc(Nc2ccc(C(F)(F)F)cc2)n1 [Compound 37, 6-[4-(3-Chloro-pyridin-2-yl)-2-methyl-piperazin-1-yl]-N-(3-trifluoromethyl-benzyl)-N′-(4-trifluoromethyl-phenyl)-[1,3,5]triazine-2,4-diamine (R)] | ≤ 1000 |
| C[C@@H]1CN(c2ncccc2Cl)CCN1c1nc(NCc2ccccc2)nc(Nc2ccc(C(F)(F)F)cc2)n1 [Compound 38, N-Benzyl-6-[4-(3-chloro-pyridin-2-yl)-2-methyl-piperazin-1-yl]-N′-(4-trifluoromethyl-phenyl)-[1,3,5]triazine-2,4-diamine (R)] | ≤ 1000 |
| CC(C)CCNc1nc(Nc2ccc(C(F)(F)F)cc2)nc(N2CCN(c3ncccc3Cl)C[C@H]2C)n1 [Compound 39, 6-[4-(3-Chloro-pyridin-2-yl)-2-methyl-piperazin-1-yl]-N-(3-methyl-butyl)-N′-(4-trifluoromethyl-phenyl)-[1,3,5]triazine-2,4-diamine (R)] | ≤ 1000 |
| CC(C)CNc1nc(Nc2ccc(C(F)(F)F)cc2)nc(N2CCN(c3ncccc3Cl)C[C@H]2C)n1 [Compound 40, 6-[4-(3-Chloro-pyridin-2-yl)-2-methyl-piperazin-1-yl]-N-isobutyl-N′-(4-trifluoromethyl-phenyl)-[1,3,5]triazine-2,4-diamine (R)] | ≤ 1000 |
| C[C@@H]1CN(c2ncccc2Cl)CCN1c1nc(NCCCc2ccccc2)nc(Nc2ccc(C(F)(F)F)cc2)n1 [Compound 41, 6-[4-(3-Chloro-pyridin-2-yl)-2-methyl-piperazin-1-yl]-N-(3-phenyl-propyl)-N′-(4-trifluoromethyl-phenyl)-[1,3,5]triazine-2,4-diamine (R)] | ≤ 1000 |
| CN(C)c1nc(Nc2ccc(C(F)(F)F)cc2)nc(N2CCN(c3ccccc3)CC2)n1 [Compound 42, N,N-Dimethyl-6-(4-phenyl-piperazin-1-yl)-N′-(4-trifluoromethyl-phenyl)-[1,3,5]triazine-2,4-diamine] | ≤ 1000 |
| CN(C)c1nc(Nc2ccc(C(F)(F)F)cc2)nc(N2CCN(c3ccccn3)CC2)n1 [Compound 43, N,N-Dimethyl-6-(4-pyridin-2-yl-piperazin-1-yl)-N′-(4-trifluoromethyl-phenyl)-[1,3,5]triazine-2,4-diamine] | ≤ 1000 |
| CN(C)c1nc(Nc2ccc(C(F)(F)F)cc2)nc(N2CCN(c3ncccc3Cl)CC2)n1 [Compound 44, 6-[4-(3-Chloro-pyridin-2-yl)-piperazin-1-yl]-N,N-dimethyl-N′-(4-trifluoromethyl-phenyl)-[1,3,5]triazine-2,4-diamine] | ≤ 1000 |
| FC(F)(F)c1ccc(Nc2nc(Cl)nc(N3CCN(c4ncccc4Cl)CC3)n2)cc1 [Compound 45, {4-Chloro-6-[4-(3-chloro-pyridin-2-yl)-piperazin-1-yl]-[1,3,5]triazin-2-yl}-(4-trifluoromethyl-phenyl)-amine] | ≤ 1000 |
